One test deals with Bcl-2 (Homo sapiens (Human), UniProt P10415). The test is described as follows: Bcl-2 competition binding (fluorescence polarization) assay. The settings on record: fluorescein labeled BH3 peptide 15 nM, Bcl-2 protein 30 nM, 3 hours of incubation at room temperature. On the procedure:
Biological Example 1: Bcl-2 Competition Binding (Fluorescence Polarization) Assay
The fluorescence-labeled 23 amino acid peptide BH3 was purchased from CalBiochem ([…]). […] This binding assay was performed in 96-well plate and with each assay contained 15 and 30 nM of labeled peptide and purified Bcl-2 protein (purchased from R&D Systems, Inc). The assay buffer contained 20 mM Hepes (pH 7.0), 50 mM KCl, 5 mM MgCl2, 20 mM Na2MoO4, 0.1 mg/mi Bovine Gamma Globulin and 0.01% NP40. Compounds were diluted in DMS0 and added to the final assay with concentration range from 20 μM to 2 nM. The polarization degree (mP) value was determined by BioTek Synergy II with background subtraction after 3 hours of incubation at room temperature. IC50 was calculated using Prism software with sigmoidal dose-response curve fitting. ABT-737 was used as reference compound. Such assays, carried out with a range of doses of test compounds, allowed the determination of an approximate IC50 value.

Test [1] has as its system BCL-2-dependent acute lymphoblastic leukemia (ALL) cell line RS4; 11 with G101V mutation. In words: In vitro anti-proliferation assay (ATPlite) in RS4; 11 with G101V mutation. To be noted: about 72 hours incubation, medium with 5% FBS or 10% normal human serum, ATPlite luminescence. In kind it is cell-based. On the procedure: Cell antiproliferation was assayed by PerkinElmer ATPlite™ Luminescence Assay System. Briefly, the various test cancer cell lines were plated at a density of about 1×10^4 cells per well in Costar 96-well plates, and were incubated with different concentrations of compounds for about 72 hours in medium supplemented with 5% FBS or 10% normal human serum (NHS). One lyophilized substrate solution vial was then reconstituted by adding 5 mL of substrate buffer solution, and was agitated gently until the solution was homogeneous. About 50 μL of mammalian cell lysis solution was added to 100 μL of cell suspension per well of a microplate, and the plate was shaken for about five minutes in an orbital shaker at ˜700 rpm. This procedure was used to lyse the cells and to stabilize the ATP. Next, 50 μL substrate solution was added to the wells and microplate was shaken for five minutes in an orbital shaker at ˜700 rpm. Finally, the luminescence was measured by a PerkinElmer TopCount® Microplate Scintillation Counter. Such assays, carried out with a range of doses of test compounds, allowed the determination of the cellular anti-antiproliferative IC50 of the compounds of the present invention.
On the technique in general: ATP-based viability assays read luminescence as a measure of living cells.

Where a name gives a salt, the structure may show the parent alone.

In general, IC50 refers to the midpoint of a concentration-inhibition curve.

Sequence of Bcl-2 (P10415 whole entry): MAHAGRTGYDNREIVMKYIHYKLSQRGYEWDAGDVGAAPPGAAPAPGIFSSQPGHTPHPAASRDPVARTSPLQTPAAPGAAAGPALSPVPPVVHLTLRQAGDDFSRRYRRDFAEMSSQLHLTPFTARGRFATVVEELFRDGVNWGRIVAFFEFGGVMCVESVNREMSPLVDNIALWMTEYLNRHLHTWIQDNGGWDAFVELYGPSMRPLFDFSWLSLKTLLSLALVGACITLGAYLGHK

On to `CC(C)Oc1ccccc1[C@@H]1CCCN1C1CC2(CCN(c3ccc(C(=O)NS(=O)(=O)c4ccc(NCC5CCOCC5)c([N+](=O)[O-])c4)c(N4c5cc6cc[nH]c6nc5O[C@H]5COCC[C@@H]54)c3)CC2)C1` [Example 62, 4-(2-((S)-2-(2-isopropoxyphenyl)pyrrolidin-1-yl)-7-azaspiro[3.5]nonan-7-yl)-N-((3-nitro-4-(((tetrahydro-2H-pyran-4-yl)methyl)amino)phenyl)sulfonyl)-2-((5aS,9aR)-6,7,9,9a-tetrahydro. 1H-pyrano[3,4-b]pyrrolo[3′,2′:5,6]pyrido[3,2-e][1,4]oxazin-5(5aH)-yl)benzamide hydrochloride], for which the IC50 at Bcl-2 came to 0.41 nM; in test [1], 121 nM.

Regarding `Cc1ccccc1C1CC(C)(C)CN1C1CC2(CCN(c3ccc(C(=O)NS(=O)(=O)c4ccc(NCC5CCOCC5)c([N+](=O)[O-])c4)c(N4c5cc6cc[nH]c6nc5O[C@@H]5COC[C@H]54)c3)CC2)C1` (stereo partly drawn) [Example 61, 4-{2-[4,4-dimethyl-2-(2-methylphenyl)pyrrolidin-1-yl]-7-azaspiro[3.5]nonan-7-yl}-2-[(11R,15S)-13,16-dioxa-2,4,10-triazatetracyclo[7.7.0.0^{3,7}.0^{11,15}]hexadeca-1(9),2,5,7-tetraen. 10-yl]-N-{3-nitro-4-[(oxan-4-ylmethyl)amino]benzenesulfonyl}benzamide], the IC50 is 0.707 nM on Bcl-2 and 130 nM in test [1].

For `Cc1ccccc1[C@H]1COCCN1C1CC2(CCN(c3ccc(C(=O)NS(=O)(=O)c4ccc(NCC5CCOCC5)c([N+](=O)[O-])c4)c(N4c5cc6cc[nH]c6nc5O[C@@H]5COC[C@H]54)c3)CC2)C1` [Example 51, N-((3-nitro-4-(((tetrahydro-2H-pyran-4-yl)methyl)amino)phenyl)sulfonyl)-2-((5aR,8aS)-5a,6,8,8a-tetrahydrofuro[3,4-b]pyrrolo[3′,2′:5,6]pyrido[3,2-e][1,4]oxazin-5(1H)-yl)-4-(2-((S)-3-(o-tolyl)morpholino)-7-azaspiro[3.5]nonan-7-yl)benzamide], the IC50 was found to be 1.08 nM at Bcl-2 and 359 nM in test [1] (RS4-11).

With `COC1(C)CCC(CNc2ccc(S(=O)(=O)NC(=O)c3ccc(N4CCC5(CC4)CC(N4CCC[C@H]4c4ccccc4C(C)C)C5)cc3N3c4cc5cc[nH]c5nc4O[C@@H]4COC[C@H]43)cc2[N+](=O)[O-])CC1` (stereo partly drawn) [Example 36, 4-(2-((S)-2-(2-isopropylphenyl)pyrrolidin-1-yl)-7-azaspiro[3.5]nonan-7-yl)-N-((4-((((1r,4r)-4-methoxy-4-methylcyclohexyl)methyl)amino)-3-nitrophenyl)sulfonyl)-2-((5aR,8aS)-5a,6,8,8a-tetrahydrofuro[3,4-b]pyrrolo[3′,2′:5,6]pyrido[3,2-e][1,4]oxazin-5(1H)-yl)benzamide hydrochloride], the IC50 at Bcl-2 was determined as 0.31 nM; in test [1], 56.4 nM.

For `Cc1ccccc1[C@@H]1CCCN1C1CC2(CCN(c3ccc(C(=O)NS(=O)(=O)c4ccc(NC[C@H]5COCCO5)c([N+](=O)[O-])c4)c(N4c5cc6cc[nH]c6nc5O[C@@H]5COC[C@H]54)c3)CC2)C1` [Example 39, N-((4-((((S)-1,4-dioxan-2-yl)methyl)amino)-3-nitrophenyl)sulfonyl)-2-((5aR,8aS)-5a,6,8,8a-tetrahydrofuro[3,4-b]pyrrolo[3′,2′:5,6]pyrido[3,2-e][1,4]oxazin-5(1H)-yl)-4-(2-((S)-2-(o-tolyl)pyrrolidin-1-yl)-7-azaspiro[3.5]nonan-7-yl)benzamide], the IC50 stood at 0.19 nM on Bcl-2 and 49.2 nM in test [1] (RS4-11).

With `CC(C)c1ccccc1[C@@H]1CCCN1C1CC2(CCN(c3ccc(C(=O)NS(=O)(=O)c4ccc(NC[C@H]5CC[C@](C)(O)CC5)c([N+](=O)[O-])c4)c(N4c5cc6cc[nH]c6nc5O[C@@H]5COC[C@H]54)c3)CC2)C1` [Example 3-0A], the IC50 on Bcl-2 was found to be 0.16 nM; in test [1], 5.6 nM.
